Legend:
Cathepsin K = molecular target: T1, Cathepsin K (Homo sapiens, UniProt P43235); assay: Inhibitory activity against human cathepsin K using Z-Leu-Arg-NHMec substrate
T1 sequence (P43235 whole entry): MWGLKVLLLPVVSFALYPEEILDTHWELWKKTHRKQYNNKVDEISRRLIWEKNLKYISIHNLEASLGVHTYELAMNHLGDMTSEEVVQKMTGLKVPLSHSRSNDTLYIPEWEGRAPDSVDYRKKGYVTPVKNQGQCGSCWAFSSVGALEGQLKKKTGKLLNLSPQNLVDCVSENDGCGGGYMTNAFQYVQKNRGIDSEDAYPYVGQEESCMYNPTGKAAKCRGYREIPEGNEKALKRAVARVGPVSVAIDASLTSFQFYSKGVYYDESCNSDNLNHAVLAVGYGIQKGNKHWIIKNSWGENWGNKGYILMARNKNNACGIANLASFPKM

Procathepsin L [1] = molecular target: Procathepsin L (Bos taurus, UniProt P25975); assay: Inhibitory activity against bovine cathepsin L using Z-Phe-Arg-NHMec substrate
Papain = molecular target: T2, Papain (Carica papaya, UniProt P00784); assay: Inhibitory activity against papain using Z-Phe-Arg-NHNp substrate
T2 sequence (P00784 whole entry): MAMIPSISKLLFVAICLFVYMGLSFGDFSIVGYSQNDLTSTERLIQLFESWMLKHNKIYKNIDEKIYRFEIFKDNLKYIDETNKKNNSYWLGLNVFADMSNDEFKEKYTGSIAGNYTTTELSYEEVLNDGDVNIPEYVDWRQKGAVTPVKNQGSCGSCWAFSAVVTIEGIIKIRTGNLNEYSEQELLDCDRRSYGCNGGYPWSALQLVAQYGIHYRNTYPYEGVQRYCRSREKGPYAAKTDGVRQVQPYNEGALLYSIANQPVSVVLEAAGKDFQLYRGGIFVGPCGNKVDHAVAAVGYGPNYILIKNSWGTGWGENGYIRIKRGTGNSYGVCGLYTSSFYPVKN

Cathepsin S = Cathepsin S (Homo sapiens, UniProt P25774); assay: Inhibitory activity against human cathepsin S using Z-Val-Val-Arg-NHMec substrate
Procathepsin L [2] = molecular target: Procathepsin L (Homo sapiens, UniProt P07711); assay: Inhibitory activity against human cathepsin L using Z-Phe-Arg-NHMec substrate
Chain of Procathepsin L (Homo sapiens, UniProt P07711) (P07711 whole entry): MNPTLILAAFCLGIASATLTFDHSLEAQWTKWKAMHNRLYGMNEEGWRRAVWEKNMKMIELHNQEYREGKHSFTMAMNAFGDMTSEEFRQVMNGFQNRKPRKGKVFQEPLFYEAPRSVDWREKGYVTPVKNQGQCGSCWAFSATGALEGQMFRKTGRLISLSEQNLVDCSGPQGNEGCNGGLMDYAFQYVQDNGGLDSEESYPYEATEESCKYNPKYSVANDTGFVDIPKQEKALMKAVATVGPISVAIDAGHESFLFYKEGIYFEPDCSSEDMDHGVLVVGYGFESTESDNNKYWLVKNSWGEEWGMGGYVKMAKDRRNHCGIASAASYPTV

Chain of Cathepsin S (P25774 whole entry): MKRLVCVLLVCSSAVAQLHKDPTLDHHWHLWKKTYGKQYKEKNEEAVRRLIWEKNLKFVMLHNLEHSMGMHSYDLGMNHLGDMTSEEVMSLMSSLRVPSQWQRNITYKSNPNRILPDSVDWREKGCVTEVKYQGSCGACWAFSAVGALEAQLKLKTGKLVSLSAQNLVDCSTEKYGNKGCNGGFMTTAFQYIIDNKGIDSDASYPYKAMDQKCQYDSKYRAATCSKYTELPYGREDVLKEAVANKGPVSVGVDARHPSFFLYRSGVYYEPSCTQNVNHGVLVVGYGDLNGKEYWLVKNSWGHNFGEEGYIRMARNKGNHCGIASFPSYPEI
Chain of Procathepsin L (Bos taurus, UniProt P25975) (P25975 whole entry): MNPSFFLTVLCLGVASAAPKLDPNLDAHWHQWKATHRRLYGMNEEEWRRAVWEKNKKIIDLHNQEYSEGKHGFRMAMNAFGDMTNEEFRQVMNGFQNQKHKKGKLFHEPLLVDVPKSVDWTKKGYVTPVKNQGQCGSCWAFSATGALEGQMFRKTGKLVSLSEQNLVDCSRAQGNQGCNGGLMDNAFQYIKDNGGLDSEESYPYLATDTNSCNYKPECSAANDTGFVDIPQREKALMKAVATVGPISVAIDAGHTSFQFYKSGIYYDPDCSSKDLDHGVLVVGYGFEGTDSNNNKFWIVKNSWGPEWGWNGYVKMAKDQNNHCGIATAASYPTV

Structure (SMILES) | Ki (Cathepsin K) | Ki (Procathepsin L [1]) | Ki (Papain) | Ki (Cathepsin S) | Ki (Procathepsin L [2])
CC(C)(C)OC(=O)N[C@@H](Cc1c(F)c(F)c(F)c(F)c1F)C(=O)NCC#N | > 100000 nM | 2500 nM | 14000 nM | 15000 nM | 
CC(C)(C)OC(=O)N[C@@H](Cc1ccccc1-c1ccccc1)C(=O)NCC#N | > 100000 nM | > 100000 nM | 299000 nM | > 100000 nM | 
CC(C)(C)OC(=O)NN(Cc1ccccc1)C(=O)NCC#N | > 100000 nM | > 100000 nM | 725000 nM | > 50000 nM | 
CC(C)(C)OC(=O)N[C@@H](Cc1ccccc1Br)C(=O)NCC#N | 4200 nM | 1100 nM | 460 nM | 610 nM | 
CC(C)C[C@H](NC(=O)OCc1ccccc1)C(=O)NCC#N | 35 nM | 750 nM | 3100 nM | 130 nM | 
CCCC[C@H](NC(=O)OC(C)(C)C)C(=O)NCC#N | 1270 nM | 19000 nM | 1570 nM | 550 nM | 
CC(C)(C)OC(=O)N[C@H](Cc1ccccc1)C(=O)NCC#N | > 100000 nM |  | 41000 nM | 46000 nM | 
CC(=O)N[C@@H](Cc1ccccc1)C(=O)NCC#N | 7500 nM | 5800 nM | 380 nM | 1400 nM | 
CC(C)(C)OC(=O)N[C@@H](Cc1cccc(Br)c1)C(=O)NCC#N | 6500 nM | 270 nM | 330 nM | 340 nM | 
C[C@H](NC(=O)OC(C)(C)C)C(=O)NCC#N | 136000 nM | > 100000 nM | 22000 nM | 292000 nM | 
CC(C)(C)OC(=O)N[C@@H](COCc1ccccc1)C(=O)NCC#N | > 100000 nM | 33000 nM | 11000 nM | 2200 nM | 
CC(C)(C)OC(=O)N[C@@H](Cc1ccc(-c2ccccc2)cc1)C(=O)NCC#N | 16000 nM | 340 nM | 16 nM | 440 nM | 
CC(C)(C)OC(=O)N[C@@H](Cc1c[nH]c2ccccc12)C(=O)NCC#N | 29000 nM | 350 nM | 7600 nM | 240 nM | 430 nM
CC(C)(C)OC(=O)N[C@@H](Cc1ccccc1)C(=O)NCC#N | 4100 nM |  | 260 nM | 620 nM | 
CC(C)(C)OC(=O)N[C@@H](Cc1ccc(F)cc1)C(=O)NCC#N | 13000 nM | 640 nM | 270 nM | 590 nM | 
CC(C)(C)OC(=O)N[C@@H](Cc1ccc2ccccc2c1)C(=O)NCC#N | 83000 nM | 120 nM | 21 nM | 83 nM | 
CC(C)(C)OC(=O)N[C@@H](Cc1ccco1)C(=O)NCC#N | 4100 nM | 14000 nM | 1200 nM | 2800 nM | 
CC(C)(C)OC(=O)N[C@@H](Cc1ccc(Br)cc1)C(=O)NCC#N | 28000 nM | 630 nM | 29 nM | 190 nM | 
CC(C)(C)OC(=O)N[C@@H](CC1CCCCC1)C(=O)NCC#N | 5300 nM | 1100 nM | 2200 nM | 44 nM | 
CN(CC#N)C(=O)[C@H](Cc1ccccc1)NC(=O)OC(C)(C)C | > 100000 nM | > 100000 nM | > 100000 nM | > 100000 nM | 
CC(C)(C)OC(=O)N[C@@H](Cc1cccs1)C(=O)NCC#N | 1200 nM | 1600 nM | 190 nM | 270 nM | 
CC(C)(C)OC(=O)N[C@@H](Cc1cccc(-c2ccccc2)c1)C(=O)NCC#N | 26000 nM | 430 nM | 1200 nM | 270 nM | 
CC(C)C[C@H](NC(=O)OC(C)(C)C)C(=O)NCC#N | 120 nM | 1200 nM | 2000 nM | 130 nM | 
N#CCNC(=O)[C@H](Cc1ccccc1)NC(=O)c1ccc(-c2ccccc2)cc1 | 300 nM | 550 nM | 16 nM | 240 nM | 

— ChEMBL document CHEMBL1141197, “Interaction of papain-like cysteine proteases with dipeptide-derived nitriles” (J Med Chem, 2005)
